A short description of data set [1]: Caco-2 permeability assay (CacoReady kit). Type of data set: in vitro ADME. Particulars: human. The procedure, abridged:
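Caco-2 monolayer barrier, commercial ready-to-use kit, manufacturer protocol. Read-out: Papp.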
(In general: Caco-2 monolayers are a common model of the intestinal barrier.)

Data set [2] can be described thus: Log D by shake flask method (octanol / PBS pH 7.4, HPLC). Particulars: octanol / PBS pH 7.4, shake flask; read-out: logD. It counts as physicochemical. The gist of the method: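 Log D is derived by HPLC measurement of how the compound distributes between octanol and pH 7.4 phosphate-buffered saline in a shake flask.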
Data set [3] concerns the target T1, recombinant human transglutaminase 2 (Homo sapiens, UniProt P21980).
T1 sequence (P21980 1-687): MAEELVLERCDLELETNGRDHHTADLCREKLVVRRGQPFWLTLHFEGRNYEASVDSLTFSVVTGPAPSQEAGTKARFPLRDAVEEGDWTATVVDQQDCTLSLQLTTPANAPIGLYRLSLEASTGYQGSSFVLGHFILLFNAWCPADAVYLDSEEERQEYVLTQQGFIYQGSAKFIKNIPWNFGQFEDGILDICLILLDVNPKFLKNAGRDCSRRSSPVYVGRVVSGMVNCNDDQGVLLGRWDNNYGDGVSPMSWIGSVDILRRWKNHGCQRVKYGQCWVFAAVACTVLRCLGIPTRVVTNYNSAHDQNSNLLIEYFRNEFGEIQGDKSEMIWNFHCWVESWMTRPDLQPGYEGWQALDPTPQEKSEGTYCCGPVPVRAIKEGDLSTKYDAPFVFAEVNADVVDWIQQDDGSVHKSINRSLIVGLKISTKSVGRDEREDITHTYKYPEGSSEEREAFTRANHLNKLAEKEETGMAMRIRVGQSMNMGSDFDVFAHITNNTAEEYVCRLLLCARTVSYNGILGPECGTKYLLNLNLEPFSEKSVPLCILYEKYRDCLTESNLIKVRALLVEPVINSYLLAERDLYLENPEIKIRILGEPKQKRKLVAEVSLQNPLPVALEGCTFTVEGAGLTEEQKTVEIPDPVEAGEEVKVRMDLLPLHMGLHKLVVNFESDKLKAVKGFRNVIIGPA
The data set is described as follows: Transglutaminase assay: incorporation of dansylcadaverine into dimethylcasein (DCC-assay). Particulars: recombinant human TG2 10 nM, dansylcadaverine/dimethylcasein; read-out: IC50 TG2. It counts as biochemical. The gist of the method:
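Recombinant human TG2 (10 nM final) incorporates dansylcadaverine (16.7 μM) into N,N-dimethylcasein (4 μM) in Tris-HCl buffer, pH 8.0, with 10 mM CaCl2 and 10 mM glutathione. Fluorescence (λex 330, λem 500 nm) followed 30 min. The slope between 20–30 min gives activity versus DMSO control, and IC50 comes from the concentration–activity plot.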

Broadly, the Papp is the rate of passage across a membrane or cell layer, normalised by area and donor concentration. By logD is commonly meant the decadic logarithm of the distribution of all forms, ionised or not, between an organic phase and buffer at a given pH. Broadly, the IC50 is the point on the concentration scale where inhibition reaches its midpoint.

As for `CCNC(=O)C(=O)CC[C@H](NC(=O)c1oc2ccccc2c1C)C(=O)Nc1cccn(CC(=O)NC2C3CC4CC(C3)CC2C4)c1=O` (stereo partly drawn) [Compound I-31, (S)-N1-ethyl-N6-(1-(2-(2-adamantylamino)-2-oxoethyl)-2-oxo-1,2-dihydropyridin-3-yl)-5-(3-methylbenzofuran-2-carboxamido)-2-oxohexanediamide], the Papp in data set [1] fell in the range of 1 to 10 ×10⁻⁶ cm/s. For the same molecule, the pH-dependent lipophilicity (logD) in data set [2] was in the range of 3 to 5. Also, the half-maximal inhibitory concentration (IC50) in data set [3] was less than 0.15 µM.
On the same counts, the results for `CCNC(=O)C(=O)CC[C@H](NC(=O)c1oc2ccccc2c1Cl)C(=O)Nc1cccn(CC(=O)NC2C3CC4CC(C3)CC2C4)c1=O` (stereo partly drawn) [Compound I-32, (S)-2-(3-chlorobenzofuran-2-carboxamido)-N6-ethyl-N1-(1-(2-(2-adamantylamino)-2-oxoethyl)-2-oxo-1,2-dihydropyridin-3-yl)-5-oxohexanediamide] are 1 to 10 ×10⁻⁶ cm/s, 3 to 5 and less than 0.15 µM.
Take `CCNC(=O)C(=O)CC[C@H](NC(=O)c1cc2c(Br)cccc2o1)C(=O)Nc1cccn(CC(=O)NC2C3CC4CC(C3)CC2C4)c1=O` (stereo partly drawn) [Compound I-33, (S)-2-(4-bromobenzofuran-2-carboxamido)-N6-ethyl-N1-(1-(2-(2-adamantylamino)-2-oxoethyl)-2-oxo-1,2-dihydropyridin-3-yl)-5-oxohexanediamide]: in data set [1], the Papp is 1 to 10 ×10⁻⁶ cm/s. The logD in data set [2] is 3 to 5. In data set [3], the concentration for half-maximal inhibition (IC50) was less than 0.15 µM.
`CCNC(=O)C(=O)CC[C@H](NC(=O)c1cc2ccccc2s1)C(=O)Nc1cccn(CC(=O)NC2C3CC4CC(C3)CC2C4)c1=O` (stereo partly drawn) [Compound I-34, (S)-2-(benzo[b]thiophene-2-carboxamido)-N6-ethyl-N1-(1-(2-(2-adamantylamino)-2-oxoethyl)-2-oxo-1,2-dihydropyridin-3-yl)-5-oxohexanediamide]: the Papp in data set [1] was in the range of 1 to 10 ×10⁻⁶ cm/s. In data set [2], the log distribution coefficient (logD) lay in the range of 3 to 5. Moreover, the IC50 in data set [3] was less than 0.15 µM.
`CCNC(=O)C(=O)CC[C@H](NC(=O)c1cc2cccc(F)c2s1)C(=O)Nc1cccn(CC(=O)NC2C3CC4CC(C3)CC2C4)c1=O` (stereo partly drawn) [Compound I-35, (S)-N1-ethyl-5-(7-fluorobenzo[b]thiophene-2-carboxamido)-N6-(1-(2-(2-adamantylamino)-2-oxoethyl)-2-oxo-1,2-dihydropyridin-3-yl)-2-oxohexanediamide] returned a Papp in data set [1] of 1 to 10 ×10⁻⁶ cm/s. Besides, in data set [2], the logD lay within 3 to 5. Further, the IC50 in data set [3] is less than 0.15 µM.
`CCNC(=O)C(=O)CC[C@H](NC(=O)c1cc2c(F)c(F)ccc2[nH]1)C(=O)Nc1cccn(CC(=O)NC2C3CC4CC(C3)CC2C4)c1=O` (stereo partly drawn) [Compound I-36, (S)-2-(4,5-difluoro-1H-indole-2-carboxamido)-N6-ethyl-N1-(1-(2-(2-adamantylamino)-2-oxoethyl)-2-oxo-1,2-dihydropyridin-3-yl)-5-oxohexanediamide]: the Papp in data set [1] is 1 to 10 ×10⁻⁶ cm/s. Also, the logD in data set [2] is 3 to 5. Moreover, the IC50 in data set [3] is less than 0.15 µM.
On the same counts, the results for `CCNC(=O)C(=O)CC[C@H](NC(=O)c1[nH]c2ccccc2c1C)C(=O)Nc1cccn(CC(=O)NC2C3CC4CC(C3)CC2C4)c1=O` (stereo partly drawn) [Compound I-37, (S)-N1-ethyl-N6-(1-(2-(2-adamantylamino)-2-oxoethyl)-2-oxo-1,2-dihydropyridin-3-yl)-5-(3-methyl-1H-indole-2-carboxamido)-2-oxohexanediamide] are 1 to 10 ×10⁻⁶ cm/s, 3 to 5 and less than 0.15 µM.
As to `CCNC(=O)C(=O)CC[C@H](NC(=O)c1nc2ccccc2[nH]1)C(=O)Nc1cccn(CC(=O)NC2C3CC4CC(C3)CC2C4)c1=O` (stereo partly drawn) [Compound I-38, (S)-2-(1H-benzo[d]imidazole-2-carboxamido)-N6-ethyl-N1-(1-(2-(2-adamantylamino)-2-oxoethyl)-2-oxo-1,2-dihydropyridin-3-yl)-5-oxohexanediamide], the Papp in data set [1] is less than 1 ×10⁻⁶ cm/s. Further, in data set [2], the logD is 3 to 5. In data set [3], the IC50 is less than 0.15 µM.
With `CCNC(=O)C(=O)CC[C@H](NC(=O)C1Cc2ccccc2C1)C(=O)Nc1cccn(CC(=O)NC2C3CC4CC(C3)CC2C4)c1=O` (stereo partly drawn) [Compound I-39, (S)-2-(2,3-dihydro-1H-indene-2-carboxamido)-N6-ethyl-N1-(1-(2-(2-adamantylamino)-2-oxoethyl)-2-oxo-1,2-dihydropyridin-3-yl)-5-oxohexanediamide], the apparent permeability coefficient (Papp) in data set [1] is 1 to 10 ×10⁻⁶ cm/s. Moreover, the log distribution coefficient (logD) in data set [2] is 3 to 5. Further, the IC50 in data set [3] is less than 0.15 µM.
`CCNC(=O)C(=O)CC[C@H](NC(=O)c1sc(C(F)(F)F)nc1C)C(=O)Nc1cccn(CC(=O)NC2C3CC4CC(C3)CC2C4)c1=O` (stereo partly drawn) [Compound I-40, (S)-N1-ethyl-N6-(1-(2-(2-adamantylamino)-2-oxoethyl)-2-oxo-1,2-dihydropyridin-3-yl)-5-(4-methyl-2-(trifluoromethyl)thiazole-5-carboxamido)-2-oxohexanediamide] displayed a Papp in data set [1] of 1 to 10 ×10⁻⁶ cm/s. Besides, the log distribution coefficient (logD) in data set [2] is 1 to 3. The IC50 in data set [3] was less than 0.15 µM.
As to `CCNC(=O)C(=O)CC[C@H](NC(=O)c1sc(C(F)(F)F)nc1Br)C(=O)Nc1cccn(CC(=O)NC2C3CC4CC(C3)CC2C4)c1=O` (stereo partly drawn) [Compound I-41, (S)-2-(4-bromo-2-(trifluoromethyl)thiazole-5-carboxamido)-N6-ethyl-N1-(1-(2-(2-adamantylamino)-2-oxoethyl)-2-oxo-1,2-dihydropyridin-3-yl)-5-oxohexanediamide], in data set [1], the Papp was 1 to 10 ×10⁻⁶ cm/s. Also, in data set [2], the logD was 1 to 3. The half-maximal inhibitory concentration (IC50) in data set [3] was less than 0.15 µM.
On the same counts, the results for `CCNC(=O)C(=O)CC[C@H](NC(=O)c1sc(-c2ccccc2)nc1C)C(=O)Nc1cccn(CC(=O)NC2C3CC4CC(C3)CC2C4)c1=O` (stereo partly drawn) [Compound I-42, (S)-N1-ethyl-N6-(1-(2-(2-adamantylamino)-2-oxoethyl)-2-oxo-1,2-dihydropyridin-3-yl)-5-(4-methyl-2-phenylthiazole-5-carboxamido)-2-oxohexanediamide] are 1 to 10 ×10⁻⁶ cm/s, 3 to 5 and 0.15 to 0.6 µM.
As for `CCNC(=O)C(=O)CC[C@H](NC(=O)c1sc(Br)cc1C)C(=O)Nc1cccn(CC(=O)NC2C3CC4CC(C3)CC2C4)c1=O` (stereo partly drawn) [Compound I-43, (S)-2-(5-bromo-3-methylthiophene-2-carboxamido)-N6-ethyl-N1-(1-(2-(2-adamantylamino)-2-oxoethyl)-2-oxo-1,2-dihydropyridin-3-yl)-5-oxohexanediamide], the Papp in data set [1] fell in the range of 1 to 10 ×10⁻⁶ cm/s. The logD in data set [2] lay within 3 to 5. For the same molecule, the IC50 in data set [3] is less than 0.15 µM.
On the same counts, the results for `CCNC(=O)C(=O)CC[C@H](NC(=O)c1sc(Br)cc1Br)C(=O)Nc1cccn(CC(=O)NC2C3CC4CC(C3)CC2C4)c1=O` (stereo partly drawn) [Compound I-44, (S)-2-(3,5-dibromothiophene-2-carboxamido)-N6-ethyl-N1-(1-(2-(2-adamantylamino)-2-oxoethyl)-2-oxo-1,2-dihydropyridin-3-yl)-5-oxohexanediamide] are 1 to 10 ×10⁻⁶ cm/s, 3 to 5 and less than 0.15 µM.
On the same counts, the results for `CCNC(=O)C(=O)CC[C@H](NC(=O)c1oc(Br)cc1C)C(=O)Nc1cccn(CC(=O)NC2C3CC4CC(C3)CC2C4)c1=O` (stereo partly drawn) [Compound I-45, (S)-2-(5-bromo-3-methylfuran-2-carboxamido)-N6-ethyl-N1-(1-(2-(2-adamantylamino)-2-oxoethyl)-2-oxo-1,2-dihydropyridin-3-yl)-5-oxohexanediamide] are 1 to 10 ×10⁻⁶ cm/s, 3 to 5 and less than 0.15 µM.

Values taken from US20240270715A1, “INHIBITORS OF TRANSGLUTAMINASES” (ZEDIRA GMBH, priority 2021, published 2024).
